This is an account of results in US20050154230A1, “Urea derivatives” (Bayer HealthCare AG, priority 2001, published 2005).

For one series, the target named is T1, human VR1 (Homo sapiens, UniProt Q8NER1).
T1 construct: expressed in transfected cells
Description: Capsaicin-induced Ca2+ influx in the human VR1-transfected CHO cell line (Assay 1). The conditions noted are these: human VR1-CHOluc9aeq cells, 10 nM capsaicin; compound purity about 40 to 90%; read-out: hVR1 class. It is filed as cell-based. A digest of the protocol: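 CHO cells expressing human VR1 with an aequorin reporter were treated with compound or vehicle for 20 min at 25° C. Capsaicin-induced Ca^2+ influx was then measured on an FDSS-3000. Integral R was calculated and compared with controls.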

T1 sequence (Q8NER1 whole entry): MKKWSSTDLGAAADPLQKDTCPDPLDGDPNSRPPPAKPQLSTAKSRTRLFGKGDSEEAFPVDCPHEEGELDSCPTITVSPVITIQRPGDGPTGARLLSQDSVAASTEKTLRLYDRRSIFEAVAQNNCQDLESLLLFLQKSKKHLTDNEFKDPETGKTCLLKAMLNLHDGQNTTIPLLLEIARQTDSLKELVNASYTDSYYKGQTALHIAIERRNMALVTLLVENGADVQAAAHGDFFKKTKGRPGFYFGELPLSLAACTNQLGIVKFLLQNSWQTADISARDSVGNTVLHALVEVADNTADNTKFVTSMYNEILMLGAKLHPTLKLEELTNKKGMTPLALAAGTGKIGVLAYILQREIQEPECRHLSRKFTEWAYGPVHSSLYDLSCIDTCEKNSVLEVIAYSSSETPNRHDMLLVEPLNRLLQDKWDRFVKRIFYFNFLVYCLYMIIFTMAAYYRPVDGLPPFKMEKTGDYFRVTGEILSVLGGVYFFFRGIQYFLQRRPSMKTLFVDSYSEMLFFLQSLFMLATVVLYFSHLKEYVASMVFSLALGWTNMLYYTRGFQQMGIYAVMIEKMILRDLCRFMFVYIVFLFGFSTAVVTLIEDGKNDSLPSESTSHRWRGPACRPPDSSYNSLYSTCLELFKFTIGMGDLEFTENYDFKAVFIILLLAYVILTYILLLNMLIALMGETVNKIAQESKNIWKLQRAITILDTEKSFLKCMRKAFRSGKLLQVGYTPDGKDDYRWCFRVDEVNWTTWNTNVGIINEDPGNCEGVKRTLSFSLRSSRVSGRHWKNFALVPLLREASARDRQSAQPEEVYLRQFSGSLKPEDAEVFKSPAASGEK

Regarding `Cc1cccc(NC(=O)Nc2ccc(Cl)c(C(F)(F)F)c2)c1CCO` [Example 256], the melting point (as a rule, the temperature of the solid-liquid transition) stood at 201 °C. For the same molecule, the IC50 at human VR1 was under 100 nM.
With `O=C(Nc1ccc(Cl)c(C(F)(F)F)c1)Nc1cccc(-c2ccccc2)c1CCO` [Example 257], the melting point came to 173 °C. Moreover, the IC50 at human VR1 lay in the range of 100 to 500 nM.
Taken in the same sequence, the figures for `Cc1cccc(NC(=O)NCc2ccc(C(F)(F)F)cc2)c1CCO` [Example 258] were 213 °C and under 100 nM.
